Where a SMILES comes first, the peptide text is derived from it. Bridges are numbered along the chain shown (N, C = ends). [ ]: non-standard residue; d: D form. The star is where a group is joined. ξ: configuration not given here. Trp(5-CN) = N#Cc1ccc2[nH]cc(C[C@H](N)C(=O)O)c2c1; Phe(3-CF3) = N[C@@H](Cc1cccc(C(F)(F)F)c1)C(=O)O; Ala(morpholin-4-yl) = N[C@@H](CN1CCOCC1)C(=O)O; Phe(4-COOH) = N[C@@H](Cc1ccc(C(=O)O)cc1)C(=O)O; Bip = N[C@@H](Cc1ccc(-c2ccccc2)cc1)C(=O)O; Phe(3-Me) = Cc1cccc(C[C@H](N)C(=O)O)c1; Val(3-OH) = CC(C)(O)[C@H](N)C(=O)O; 3Pal = N[C@@H](Cc1cccnc1)C(=O)O; 4Pal = N[C@@H](Cc1ccncc1)C(=O)O; Cha = N[C@@H](CC1CCCCC1)C(=O)O; Cit = NC(=O)NCCC[C@H](N)C(=O)O; Ile(3ξ) = CCC(C)[C@H](N)C(=O)O; dCha = N[C@H](CC1CCCCC1)C(=O)O; Thr(3ξ) = CC(O)[C@H](N)C(=O)O; Carboxymethyl = O=C(O)C*; Nle = CCCC[C@H](N)C(=O)O; Orn = NCCC[C@H](N)C(=O)O; Pra = C#CC[C@H](N)C(=O)O; dDap = NC[C@@H](N)C(=O)O; Dab = NCC[C@H](N)C(=O)O; Dap = NC[C@H](N)C(=O)O; ξA = CC(N)C(=O)O

Consider 14 compounds from patent publication US20250163104A1, “MACROCYCLIC IMMUNOMODULATORS” (priority 2021, published 2025).

This experiment concerns the target T1, human PD-1 / PD-L1-Ig binding on Jurkat cell line over-expressing human PD-1 (Jurkat-PD-1) (Homo sapiens, UniProt Q15116).
T1 construct: expressed in transfected cells; host or cells: Jurkat
In words: Jurkat-PD-1 Cell Binding High-Content Screening Assay (CBA). The class given is cell-based. As to conditions: Jurkat-PD-1 cells, PE-labeled PD-L1-Ig 20 nM final; read-out: Jurkat HPD1_PDL1 IC50. In short, it runs like this: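 Jurkat cells over-expressing human PD-1, in DMEM/10% FCS, pre-incubated with compound 2 h at 37° C. PE-labeled human PD-L1-Ig (20 nM final) added for 1 h; cells fixed in paraformaldehyde with Hoechst 33342 nuclear stain, washed, and bound fluorescence quantified by high-content imaging.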

T1 sequence (Q15116 25-288): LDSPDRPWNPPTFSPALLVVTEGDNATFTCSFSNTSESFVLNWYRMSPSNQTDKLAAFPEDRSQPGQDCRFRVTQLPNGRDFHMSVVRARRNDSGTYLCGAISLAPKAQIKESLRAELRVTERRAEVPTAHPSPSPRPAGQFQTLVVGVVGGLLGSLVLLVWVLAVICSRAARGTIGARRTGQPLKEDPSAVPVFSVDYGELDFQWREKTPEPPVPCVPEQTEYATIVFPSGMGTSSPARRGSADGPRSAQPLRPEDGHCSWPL

For `CC(C)C[C@H]1NC(=O)[C@H](CCCN)NC(=O)[C@H](Cc2ccc(C(=O)O)cc2)NC(=O)[C@H](Cc2ccc(-c3ccccc3)cc2)NC(=O)[C@H](Cc2c[nH]c3ccc(C#N)cc23)NC(=O)[C@H](Cc2cccc(C(F)(F)F)c2)NC(=O)[C@H](CC(=O)O)NC(=O)[C@H](Cc2ccc(C(=O)O)cc2)NC(=O)[C@H](CN2CCOCC2)NC(=O)CSC[C@@H](C(=O)N[C@@H](CCN)C(N)=O)NC(=O)[C@H](CCC(=O)O)NC(=O)[C@H](C(C)C)NC(=O)[C@H](CC2CCCCC2)NC(=O)[C@H](CCN)NC1=O` [Example 2740] ({CH2CO}-[Ala(morpholin-4-yl)][Phe(4-COOH)]D[Phe(3-CF3)][Trp(5-CN)][Bip][Phe(4-COOH)][Orn][dL][Dab][Cha]VEC[Dab]-NH2; thioether N-14), the IC50 (as a rule, the concentration that inhibits the measured activity by half) is 4.8 nM. As to `CC(C)C[C@H]1NC(=O)[C@H](CCCN)NC(=O)[C@H](Cc2ccc(C(=O)O)cc2)NC(=O)[C@H](Cc2ccc(-c3ccccc3)cc2)NC(=O)[C@H](Cc2ccc(C(=O)O)cc2)NC(=O)[C@H](Cc2cccc(C(F)(F)F)c2)NC(=O)[C@H](CC(N)=O)NC(=O)[C@H](Cc2ccc(C(=O)O)cc2)NC(=O)[C@H](CN2CCOCC2)NC(=O)CSC[C@@H](C(=O)N[C@@H](CCN)C(N)=O)NC(=O)[C@H](CCC(=O)O)NC(=O)[C@H](C(C)C)NC(=O)[C@H](CC2CCCCC2)NC(=O)[C@H](CCN)NC1=O` [Example 2722] ({CH2CO}-[Ala(morpholin-4-yl)][Phe(4-COOH)]N[Phe(3-CF3)][Phe(4-COOH)][Bip][Phe(4-COOH)][Orn][dL][Dab][Cha]VEC[Dab]-NH2; thioether N-14), the IC50 came to 105 nM. With `Cc1cccc(C[C@@H]2NC(=O)[C@H](CC(=O)O)NC(=O)[C@H](Cc3ccc(C(=O)O)cc3)NC(=O)[C@H](CN)NC(=O)CSC[C@@H](C(=O)N[C@@H](C)C(N)=O)NC(=O)[C@H]([C@@H](C)O)NC(=O)[C@H](C(C)C)NC(=O)[C@H](CC3CCCCC3)NC(=O)[C@H](CCN)NC(=O)[C@@H](CC(C)C)NC(=O)[C@H](CCCN)NC(=O)[C@H](CCCNC(N)=O)NC(=O)[C@H](Cc3ccc(-c4ccccc4)cc3)NC(=O)[C@H](C(C)C)NC2=O)c1` [Compound 1202], the IC50 came to 9.8 nM. As for `CCNC(=O)[C@H](C)NC(=O)[C@@H]1CSCC(=O)N[C@@H](CN)C(=O)N[C@@H](Cc2ccc(OCC(=O)O)cc2)C(=O)N[C@@H](CC(=O)O)C(=O)N[C@@H](Cc2cccc(C)c2)C(=O)N[C@@H](C(C)C)C(=O)N[C@@H](Cc2ccc(-c3ccccc3)cc2)C(=O)N[C@@H](CCCNC(N)=O)C(=O)N[C@@H](CCCN)C(=O)N[C@H](CC(C)C)C(=O)N[C@@H](CCN)C(=O)N[C@@H](CC2CCCCC2)C(=O)N[C@@H](C(C)C)C(=O)N[C@@H](CN)C(=O)N1` [Compound 2015] ({CH2CO}-[Dap]Y(Carboxymethyl)D[Phe(3-Me)]V[Bip][Cit][Orn][dL][Dab][Cha]V[Dap]CA-NHEt; thioether N-14), the figure is 10.5 nM; as for `CCC(C)[C@@H]1NC(=O)[C@H](Cc2ccc(-c3ccccc3)cc2)NC(=O)[C@H](C(C)C)NC(=O)[C@H](Cc2c[nH]c3ccccc23)NC(=O)[C@H](CC(=O)O)NC(=O)[C@H](Cc2ccc(OCC(=O)O)cc2)NC(=O)[C@H](CCN)NC(=O)CSC[C@@H](C(=O)N[C@@H](C)C(N)=O)NC(=O)[C@H](C(C)O)NC(=O)[C@H](C(C)C)NC(=O)[C@H](CC(C)C)NC(=O)[C@H](CCN)NC(=O)[C@@H](CC(C)C)NC(=O)[C@H](CCCN)NC1=O` (stereo partly drawn) [Compound 2507] ({CH2CO}-[Dab]Y(Carboxymethyl)DWV[Bip][Ile(3ξ)][Orn][dL][Dab]LV[Thr(3ξ)]CA-NH2; thioether N-14), 20.8 nM. In the case of `Cc1cccc(C[C@@H]2NC(=O)[C@H](CC(=O)O)NC(=O)[C@H](Cc3ccc(C(=O)O)cc3)NC(=O)[C@H](CN)NC(=O)CSC[C@@H](C(=O)N[C@@H](CCN)C(N)=O)NC(=O)[C@@H](CN)NC(=O)[C@H](C(C)C)NC(=O)[C@H](CC3CCCCC3)NC(=O)[C@H](CCN)NC(=O)[C@@H](CC(C)C)NC(=O)[C@H](CCCN)NC(=O)[C@H](C(C)C)NC(=O)[C@H](Cc3ccc(-c4ccccc4)cc3)NC(=O)[C@H](C(C)C)NC2=O)c1` [Compound 2030] ({CH2CO}-[Dap][Phe(4-COOH)]D[Phe(3-Me)]V[Bip]V[Orn][dL][Dab][Cha]V[dDap]C[Dab]-NH2; thioether N-14), the IC50 amounted to 14.7 nM. For `CCCC[C@@H]1NC(=O)[C@H](CCCNC(=N)N)NC(=O)[C@@H](CC(C)C)NC(=O)[C@H](CCCN)NC(=O)[C@H](CCCNC(N)=O)NC(=O)[C@H](Cc2ccc(-c3ccccc3)cc2)NC(=O)[C@H](C(C)C)NC(=O)[C@H](Cc2c[nH]c3ccccc23)NC(=O)[C@H](CC(=O)O)NC(=O)[C@H](Cc2ccc(O)cc2)NC(=O)[C@H](CC(N)=O)NC(=O)CSC[C@@H](C(=O)N[C@@H](C)C(N)=O)NC(=O)[C@H]([C@@H](C)O)NC(=O)[C@H](C(C)C)NC1=O` [Compound 1177] ({CH2CO}-NYDWV[Bip][Cit][Orn][dL]R[Nle]VTCA-NH2; thioether N-14) the value was 78.9 nM; for `C#CC[C@H](NC(=O)C(C)NC(=O)[C@@H]1CSCC(=O)N[C@@H](Cc2ccncc2)C(=O)N[C@@H](Cc2ccc(C(=O)O)cc2)C(=O)N[C@@H](CC(=O)O)C(=O)N[C@@H](Cc2cccc(C)c2)C(=O)N[C@@H](Cc2ccc(OCC(=O)O)cc2)C(=O)N[C@@H](Cc2ccc(-c3ccccc3)cc2)C(=O)N[C@@H](Cc2ccc(OCC(=O)O)cc2)C(=O)N[C@@H](CCCN)C(=O)N[C@H](CC(C)C)C(=O)N[C@@H](CCN)C(=O)N[C@@H](CC2CCCCC2)C(=O)N[C@@H](C(C)(C)O)C(=O)N[C@@H](CO)C(=O)N1)C(N)=O` (stereo partly drawn) [Compound 2329] ({CH2CO}-[4Pal][Phe(4-COOH)]D[Phe(3-Me)]Y(Carboxymethyl)[Bip]Y(Carboxymethyl)[Orn][dL][Dab][Cha][Val(3-OH)]SC[ξA][Pra]-NH2; thioether N-14), 973 nM; for `CC(C)C[C@@H]1NC(=O)[C@H](CCN)NC(=O)[C@@H](CC(C)C)NC(=O)[C@H](CCCN)NC(=O)[C@H](C(C)C)NC(=O)[C@H](Cc2ccc(-c3ccccc3)cc2)NC(=O)[C@H](C(C)C)NC(=O)[C@H](Cc2c[nH]c3ccccc23)NC(=O)[C@H](CC(=O)O)NC(=O)[C@H](Cc2ccc(C(=O)O)cc2)NC(=O)[C@H](Cc2cccnc2)NC(=O)CSC[C@@H](C(=O)N[C@@H](C)C(N)=O)NC(=O)[C@H]([C@@H](C)O)NC(=O)[C@H](C(C)C)NC1=O` [Compound 1049] ({CH2CO}-[3Pal][Phe(4-COOH)]DWV[Bip]V[Orn][dL][Dab]LVTCA-NH2; thioether N-14), 7.2 nM. As for `CCCC[C@@H]1NC(=O)CSC[C@@H](C(=O)N[C@@H](CCN)C(N)=O)NC(=O)[C@H](CO)NC(=O)[C@H](C(C)(C)O)NC(=O)[C@H](CC2CCCCC2)NC(=O)[C@H](CCN)NC(=O)[C@@H](CC(C)C)NC(=O)[C@H](CCCN)NC(=O)[C@H](Cc2ccc(C(=O)O)cc2)NC(=O)[C@H](Cc2ccc(-c3ccccc3)cc2)NC(=O)[C@H](Cc2ccc(C(=O)O)cc2)NC(=O)[C@H](Cc2cccc(C(F)(F)F)c2)NC(=O)[C@H](CC(=O)O)NC(=O)[C@H](Cc2ccc(OCC(=O)O)cc2)NC1=O` [Example 2713] ({CH2CO}-[Nle]Y(Carboxymethyl)D[Phe(3-CF3)][Phe(4-COOH)][Bip][Phe(4-COOH)][Orn][dL][Dab][Cha][Val(3-OH)]SC[Dab]-NH2; thioether N-14), the figure is 0.7 nM; as for `CC(C)[C@@H]1NC(=O)[C@H](Cc2c[nH]c3ccccc23)NC(=O)[C@H](CC(=O)O)NC(=O)[C@H](Cc2ccncc2)NC(=O)[C@H](Cc2ccc(OCC(=O)O)cc2)NC(=O)CSC[C@@H](C(=O)N[C@@H](C)C(N)=O)NC(=O)[C@H]([C@@H](C)O)NC(=O)[C@H](C(C)C)NC(=O)[C@H](CC2CCCCC2)NC(=O)[C@H](CCN)NC(=O)[C@@H](CC2CCCCC2)NC(=O)[C@H](CCCN)NC(=O)[C@H](C(C)C)NC(=O)[C@H](Cc2ccc(-c3ccccc3)cc2)NC1=O` [Compound 1637] ({CH2CO}-Y(Carboxymethyl)[4Pal]DWV[Bip]V[Orn][dCha][Dab][Cha]VTCA-NH2; thioether N-14), 32.7 nM; as for `C#CC[C@H](NC(=O)[C@H](CCN)NC(=O)[C@@H]1CSCC(=O)N[C@@H](CN)C(=O)N[C@@H](Cc2ccc(OCC(=O)O)cc2)C(=O)N[C@@H](CC(=O)O)C(=O)N[C@@H](Cc2cccc(C)c2)C(=O)N[C@@H](Cc2ccc(OCC(=O)O)cc2)C(=O)N[C@@H](Cc2ccc(-c3ccccc3)cc2)C(=O)N[C@@H](Cc2ccc(OCC(=O)O)cc2)C(=O)N[C@@H](CCCN)C(=O)N[C@H](CC(C)C)C(=O)N[C@@H](CCN)C(=O)N[C@@H](CC2CCCCC2)C(=O)N[C@@H](C(C)(C)O)C(=O)N[C@@H](CO)C(=O)N1)C(N)=O` [Compound 1860] ({CH2CO}-[Dap]Y(Carboxymethyl)D[Phe(3-Me)]Y(Carboxymethyl)[Bip]Y(Carboxymethyl)[Orn][dL][Dab][Cha][Val(3-OH)]SC[Dab][Pra]-NH2; thioether N-14), 3.9 nM. For the compound `CC(C)C[C@@H]1NC(=O)[C@H](Cc2c[nH]c3ccccc23)NC(=O)[C@H](CC(=O)O)NC(=O)[C@H](Cc2ccc(O)cc2)NC(=O)[C@H](Cc2ccccc2)NC(=O)CSC[C@@H](C(=O)NCC(N)=O)NC(=O)[C@H](CO)NC(=O)[C@H](C(C)C)NC(=O)[C@H](CC(C)C)NC(=O)[C@H](CC(N)=O)NC(=O)[C@@H](C)NC(=O)[C@H](CCCN)NC(=O)[C@H](C(C)C)NC(=O)[C@H](Cc2ccc(-c3ccccc3)cc2)NC1=O` [Compound 1093] ({CH2CO}-FYDWL[Bip]V[Orn][dA]NLVSCG-NH2; thioether N-14), the IC50 was 120 nM. For `CC(C)C[C@@H]1NC(=O)[C@H](CCN)NC(=O)[C@@H](CC(C)C)NC(=O)[C@H](CCN)NC(=O)[C@H](CCC(=O)O)NC(=O)[C@H](Cc2ccc(-c3ccccc3)cc2)NC(=O)[C@H](C(C)C)NC(=O)[C@H](Cc2c[nH]c3ccccc23)NC(=O)[C@H](CC(=O)O)NC(=O)[C@H](Cc2ccc(C(=O)O)cc2)NC(=O)[C@H](Cc2ccc(OCC(=O)O)cc2)NC(=O)CSC[C@@H](C(=O)N[C@@H](C)C(N)=O)NC(=O)[C@H](CO)NC(=O)[C@H](C(C)C)NC1=O` [Compound 1269] ({CH2CO}-Y(Carboxymethyl)[Phe(4-COOH)]DWV[Bip]E[Dab][dL][Dab]LVSCA-NH2; thioether N-14) the value was 40.4 nM.
